Each structure is given as a SMILES string. pIC50: −log10 of the molar value. Like-named read-outs stand apart in the source and are kept apart here.

The conditions of series [1]: microsomes.
The next series concerns the target Mtb Lpd (Mycobacterium tuberculosis (strain ATCC 25618 / H37Rv), UniProt P9WHH9). It is filed as biochemical. The note with it: for IC50: 30 min preincubation, read-out: LPD IC50 (μM) w/ 30 min preincubation; for pIC50: read-out: LPD IC50.

Regarding `COc1ccc(NC(=O)CN(C)S(=O)(=O)c2cc(C)cc3cc(C#N)[nH]c23)cc1Cl` [Example 211, N-(3-chloro-4-methoxyphenyl)-2-((2-cyano-N,5-dimethyl-1H-indole)-7-sulfonamido)acetamide], in series [1], the “Human Liver Microsome Stability” value worked out at 358 µL/min/mg. Also, on Mtb Lpd, the IC50 amounted to 0.02 µM.
For `Cc1cc(S(=O)(=O)N2CC[C@H]2C(=O)NCC#Cc2ccccc2)c2[nH]ncc2c1` [Example 205], the “Human Liver Microsome Stability” value in series [1] came out at 205 µL/min/mg. Further, the pIC50 on Mtb Lpd is 6.81.
In the case of `Cc1cc(S(=O)(=O)N2CC[C@H]2C(=O)NCC#N)c2[nH]ncc2c1` [Example 202], in series [1], the “Human Liver Microsome Stability” value was 4 µL/min/mg. Besides, at Mtb Lpd, the pIC50 was 6.49.
The corresponding values for `Cc1cc(S(=O)(=O)N(C)CC(=O)Nc2ccc(N3CCOCC3)c(Cl)c2)c2[nH]c(C#N)cc2c1` [Example 198] are 137 µL/min/mg and 7.06.
The like results for `Cc1cc(S(=O)(=O)N(C)CC(=O)Nc2ccc(C3CCN(C4COC4)CC3)c(Cl)c2)c2[nH]ncc2c1` [Example 193, N-(3-chloro-4-(1-(oxetan-3-yl)piperidin-4-yl)phenyl)-2-((N,5-dimethyl-1H-indazole)-7-sulfonamido)acetamide] were, in that order, 73 µL/min/mg and 7.28.
In the case of `Cc1cc(S(=O)(=O)N(C)CC(=O)Nc2ccc3c(c2)OCCN3C2CCOCC2)c2n[nH]c(F)c2c1` [Example 121], the “Human Liver Microsome Stability” value in series [1] was 125 µL/min/mg. Besides, the pIC50 on Mtb Lpd was 7.60.
Turning to `Cc1cc(S(=O)(=O)N2CC[C@H]2C(=O)Nc2ccc(OCCN(C)C)c(Cl)c2)c2[nH]ncc2c1` [Example 199], in series [1], the “Human Liver Microsome Stability” value was -7 µL/min/mg. Further, on Mtb Lpd, the IC50 was determined as 0.045 µM and the negative-log IC50 (pIC50) was 6.73.
In the case of `Cc1cc(S(=O)(=O)N(C)CC(=O)NCc2ccccc2)c2n[nH]cc2c1` [Example 49], the “Human Liver Microsome Stability” value in series [1] was determined as 43 µL/min/mg. Also, at Mtb Lpd, the pIC50 is 7.51.
The like results for `Cc1cc(S(=O)(=O)N(C)CC(=O)Nc2ccn(C)c(=O)c2)c2n[nH]c(Cl)c2c1` [Example 176, 2-((3-chloro-N,5-dimethyl-1H-indazole)-7-sulfonamido)-N-(1-methyl-2-oxo-1,2-dihydropyridin-4-yl)acetamide] were, in that order, 34 µL/min/mg and 6.60.
As to `O=C(Nc1ccc(N2CCOCC2)c(Cl)c1)[C@@H]1CCN1S(=O)(=O)c1cc(C(F)F)cc2cn[nH]c12` [Example 190, (S)—N-(3-chloro-4-morpholinophenyl)-1-((5-(difluoromethyl)-1H-indazol-7-yl)sulfonyl)azetidine-2-carboxamide], the “Human Liver Microsome Stability” value in series [1] turned out to be 86 µL/min/mg. Further, the pIC50 at Mtb Lpd was 6.95.
With `Cc1cc(S(=O)(=O)N2CC[C@H]2C(=O)Nc2ccc3c(c2)N(C2COC2)CCO3)c2[nH]c(C#N)cc2c1` [Example 209], in series [1], the “Human Liver Microsome Stability” value came out at 212 µL/min/mg. For the same molecule, on Mtb Lpd, the IC50 stood at 0.033 µM.
Regarding `Cc1cc(S(=O)(=O)N(C)CC(=O)Nc2ccn(C)c(=O)c2)c2n[nH]c(F)c2c1` [Example 95], the “Human Liver Microsome Stability” value in series [1] stood at 21 µL/min/mg. Moreover, at Mtb Lpd, the pIC50 was 7.29.
For `CCN(CC(=O)Nc1ccc2c(c1)OCCN2C(C)(C)CO)S(=O)(=O)c1cc(C)cc2cn[nH]c12` [Example 145, 2-((N-ethyl-5-methyl-1H-indazole)-7-sulfonamido)-N-(4-(1-hydroxy-2-methylpropan-2-yl)-3,4-dihydro-2H-benzo[b][1,4]oxazin-7-yl)acetamide], in series [1], the “Human Liver Microsome Stability” value is 92 µL/min/mg. Also, the pIC50 at Mtb Lpd is 7.41.
Turning to `CC#CC(C)(C)NC(=O)CN(C)S(=O)(=O)c1cc(C)cc2cc(C#N)[nH]c12` [Example 229], the “Human Liver Microsome Stability” value in series [1] worked out at 160 µL/min/mg. In addition, the IC50 at Mtb Lpd came to 0.031 µM.
For `Cc1cc(S(=O)(=O)N(C)CC(=O)Nc2ccn(C)c(=O)c2)c2[nH]ncc2c1F` [Example 43, 2-((4-fluoro-N,5-dimethyl-1H-indazole)-7-sulfonamido)-N-(1-methyl-2-oxo-1,2-dihydropyridin-4-yl)acetamide], in series [1], the “Human Liver Microsome Stability” value is 42 µL/min/mg. Besides, the pIC50 on Mtb Lpd was 7.30.
The like results for `Cc1cc(S(=O)(=O)N(C)CC(=O)Nc2ccc3c(c2)OCCN3C2COC2)c2n[nH]c(F)c2c1` [Example 140] were, in that order, 66 µL/min/mg and 7.56.
`C#CCNC(=O)[C@@H]1CCN1S(=O)(=O)c1cc(C)cc2cn[nH]c12` [Example 201]: the “Human Liver Microsome Stability” value in series [1] amounted to 14 µL/min/mg. Further, the pIC50 on Mtb Lpd is 6.65.
`CC#CCNC(=O)[C@@H]1CCN1S(=O)(=O)c1cc(C)cc2cn[nH]c12` [Example 200]: the “Human Liver Microsome Stability” value in series [1] stood at 13 µL/min/mg. Moreover, the pIC50 on Mtb Lpd is 6.42.
With `Cc1cc(S(=O)(=O)N2CC[C@H]2C(=O)NC2CCN(C)CC2)c2[nH]ncc2c1` [Example 129], the “Human Liver Microsome Stability” value in series [1] came out at 418 µL/min/mg. Besides, the pIC50 at Mtb Lpd is 5.18.
The corresponding values for `Cc1cc(S(=O)(=O)N(CC(=O)NC2=CC(=O)C(C)C=C2)C(C)C)c2[nH]ncc2c1` (stereo not drawn) [Example 47] are -9 µL/min/mg and 6.36.
In the case of `Cc1cc(S(=O)(=O)N(C)CC(=O)Nc2ccc3c(c2)OCCN3C(C)(C)CO)c2[nH]ncc2c1` [Example 105], the “Human Liver Microsome Stability” value in series [1] is 56 µL/min/mg. The pIC50 on Mtb Lpd was 7.57.
The like results for `Cc1cc(S(=O)(=O)N(C)CC(=O)Nc2ccn(C)c(=O)c2)c2[nH]c(C#N)cc2c1` [Example 124, 2-((2-cyano-N,5-dimethyl-1H-indole)-7-sulfonamido)-N-(1-methyl-2-oxo-1,2-dihydropyridin-4-yl)acetamide] were, in that order, 51 µL/min/mg and 7.10.
The like results for `Cc1cc(S(=O)(=O)N2CC[C@@H]2C(=O)Nc2ccn(C)c(=O)c2)c2[nH]c(C#N)cc2c1` [Example 188, (R)-1-((2-cyano-5-methyl-1H-indol-7-yl)sulfonyl)-N-(1-methyl-2-oxo-1,2-dihydropyridin-4-yl)azetidine-2-carboxamide] were, in that order, 5 µL/min/mg and 5.05.
The like results for `Cc1cc(S(=O)(=O)N(C)CC(=O)Nc2ccc3cccnc3c2)c2n[nH]cc2c1` [Example 61] were, in that order, 122 µL/min/mg and 7.64.
Turning to `COc1ccc(NC(=O)CN(C)S(=O)(=O)c2cc(C)cc3cc(C#N)[nH]c23)cn1` [Example 216, 2-((2-cyano-N,5-dimethyl-1H-indole)-7-sulfonamido)-N-(6-methoxypyridin-3-yl)acetamide], the “Human Liver Microsome Stability” value in series [1] amounted to 49 µL/min/mg. Moreover, the IC50 at Mtb Lpd is 0.02 µM.
The like results for `Cc1cc(S(=O)(=O)N(C)CC(=O)Nc2ccc3c(c2)N(C2COC2)CCO3)c2[nH]c(C#N)cc2c1` [Example 208] were, in that order, 341 µL/min/mg and 0.015 µM.
Consider `Cc1cc(S(=O)(=O)N2CC[C@H]2C(=O)Nc2ccc3c(c2)OCCN3C2COC2)c2[nH]c(C#N)cc2c1` [Example 206, (S)-1-((2-cyano-5-methyl-1H-indol-7-yl)sulfonyl)-N-(4-(oxetan-3-yl)-3,4-dihydro-2H-benzo[b][1,4]oxazin-7-yl)azetidine-2-carboxamide], for which the “Human Liver Microsome Stability” value in series [1] worked out at 111 µL/min/mg. In addition, at Mtb Lpd, the IC50 came out at 0.022 µM and the pIC50 is 7.09.
`COc1ccc(NC(=O)CN(C)S(=O)(=O)c2cc(C(F)F)cc3cn[nH]c23)cc1C` [Example 8]: the “Human Liver Microsome Stability” value in series [1] turned out to be 534 µL/min/mg. Also, the pIC50 on Mtb Lpd is 7.58.
Consider `CCN(CC(=O)NC1=CC(=O)C(C)C=C1)S(=O)(=O)c1cc(C)cc2cn[nH]c12` (stereo not drawn) [Example 45], for which the “Human Liver Microsome Stability” value in series [1] was found to be 39 µL/min/mg. Moreover, the pIC50 on Mtb Lpd is 7.57.
Turning to `Cc1cc2c(c(S(=O)(=O)N(C)CC(=O)Nc3ccc(N4CCCCC4)c(C)c3)c1)CC=C2` [Example 11], the “Human Liver Microsome Stability” value in series [1] worked out at 105 µL/min/mg. At Mtb Lpd, the pIC50 is 7.47.
The corresponding values for `Cc1cc(S(=O)(=O)N(C)CC(=O)Nc2ccn(C)c(=O)c2)c2[nH]nc(C)c2c1` [Example 36] are -26 µL/min/mg and 7.18.
`Cc1cc(S(=O)(=O)N2CC[C@H]2C(=O)Nc2ccc3c(c2)OCCN3C(C)(C)CO)c2[nH]ncc2c1` [Example 147]: the “Human Liver Microsome Stability” value in series [1] stood at 212 µL/min/mg. Besides, the pIC50 on Mtb Lpd is 7.43.
Consider `Cc1cc(S(=O)(=O)N2CCC[C@@H](C(=O)Nc3ccc4c(c3)OCCN4C3COC3)C2)c2[nH]ncc2c1` [Example 170, N-1-((5-methyl-1H-indazol-7-yl)sulfonyl)-N-(4-(oxetan-3-yl)-3,4-dihydro-2H-benzo[b][1,4]oxazin-7-yl)piperidine-3-carboxamide], for which, in series [1], the “Human Liver Microsome Stability” value was found to be 34 µL/min/mg. Moreover, the pIC50 on Mtb Lpd was 7.29.
On to `CCCCNC(=O)CN(C)S(=O)(=O)c1cc(C)cc2cc(C#N)[nH]c12` [Example 223], for which, in series [1], the “Human Liver Microsome Stability” value stood at 62 µL/min/mg. Also, the IC50 on Mtb Lpd was 0.028 µM.
The like results for `Cc1cc(S(=O)(=O)N(C)CC(=O)Nc2cccc(N3CCCCC3=O)c2)c2[nH]c(C#N)cc2c1` [Example 219] were, in that order, 150 µL/min/mg and 0.03 µM.
Take `Cc1cc(S(=O)(=O)N(C)CC(=O)Nc2ccc3ncccc3c2)c2n[nH]cc2c1` [Example 52]: in series [1], the “Human Liver Microsome Stability” value worked out at 113 µL/min/mg. For the same molecule, the pIC50 at Mtb Lpd was 7.66.
The corresponding values for `CN(CC(=O)Nc1ccn(C)c(=O)c1)S(=O)(=O)c1cc(C(F)F)cc2c(F)n[nH]c12` [Example 183, 2-((5-(difluoromethyl)-3-fluoro-N-methyl-1H-indazole)-7-sulfonamido)-N-(1-methyl-2-oxo-1,2-dihydropyridin-4-yl)acetamide] are -15 µL/min/mg and 6.64.
The like results for `Cc1cc(S(=O)(=O)N(C)CC(=O)Nc2ccc3c(c2)N(C2CCOCC2)CCO3)c2[nH]ncc2c1` [Example 163] were, in that order, 94 µL/min/mg and 7.51.
